In the assay the test system is Salmonella Typhi PhoP-promoter GFP reporter, fluorescence, 4 h. Description: PhoP regulon inhibitors, Salmonella typhi PhoP promoter GFP reporter, confirmatory (AID 1850).

Values joined by “and” are separate entries in the source; they are usually repeats but may differ in a detail not shown here. Equal entries are not always repeated. Bounds are passed on as bounds.

The term IC50 denotes the concentration at which inhibition is half-maximal.

Turning to `O=C(Nc1nc(-c2ccccn2)cs1)c1ccc(Cl)s1`, the IC50 was 33.2 µM.
As to `COc1cccc(Nc2cc(C)nc3ccccc23)c1`, the IC50 was 69.6 µM.
The same measure for `C#CCOCCOCCOCCNc1nc(N2CCN(C(=O)CCCCCCCCCCNC(=O)[C@H](CCCCN)n3cc(CCO)nn3)CC2)nc(N2CCN(C(=O)CCCCCCCCCCNC(=O)[C@H](CCCCN)n3cc(C[C@@H](C)CC)nn3)CC2)n1`: 31.9 µM; for `C#CCOCCOCCOCCNc1nc(N2CCN(C(=O)CCCCCCCCCCNC(=O)[C@H](CCCCN)n3cc(C)nn3)CC2)nc(N2CCN(C(=O)CCCCCCCCCCNC(=O)[C@@H]([C@H](C)CC)n3cc(CCCCCN)nn3)CC2)n1`: 33 µM; for `CCn1cc(C(=O)NCc2ccc3c(c2)OCO3)c(=O)c2cc(F)c(N3CCN(C(=O)c4ccco4)CC3)cc21`: 139 µM.
In the case of `CC[C@@H](C)[C@H](CN[C@H](CNC)C(C)C)NC[C@@H](C)c1ccc(CC(C)C)cc1`, the IC50 was 74 µM.
With `C#CCOCCOCCOCCNc1nc(N2CCN(C(=O)CCCCCCCCCCNC(=O)Cn3cc(CCCCCN)nn3)CC2)nc(N2CCN(C(=O)CCCCCCCCCCNC(=O)[C@H]([C@@H](C)CC)n3cc(CCCCCN)nn3)CC2)n1` the figure was 38.9 µM.
The same measure for `O=C(N/N=C/c1cc(Cl)ccc1O)c1ccncc1`: 19.7 µM.
The same measure for `CCCCn1c(NS(=O)(=O)c2ccc(C)cc2)c(S(=O)(=O)c2ccccc2)c2nc3ccccc3nc21`: 7.98 µM.
Consider `COc1cc([N+](=O)[O-])cc(/C=N/NC(=O)c2cccnc2)c1O`, for which the IC50 was 82.4 µM.
The same measure for `CN1CCN(c2nc3cc(C(F)(F)F)ccc3n3cccc23)CC1`: 73.7 µM; for `CN(C)c1ccc2nc3ccc(=[N+](C)C)cc-3sc2c1`: 18.2 µM.
As to `Nc1ncncc1-c1ccc(Cl)cc1`, the IC50 is 143 µM.
Take `N=c1n(Cc2ccc(Cl)cc2)c2ccccc2n1CC(O)COc1ccccc1` (configuration not stated): the IC50 is 55.4 µM.
On to `CCc1cccc(NC(=O)CSC2=NS(=O)(=O)c3ccccc32)c1`, for which the IC50 is 37.3 µM.
`CC(C(=O)NC1C=CS(=O)(=O)C1)N1C(=O)/C(=C/c2ccc(Cl)cc2)SC1=S` (configuration not stated): the IC50 is 32 µM.
With `CO[C@H]1C=CO[C@@]2(C)Oc3c(C)c(O)c4c(O)c(c(C=NN5CCN(C)CC5)c(O)c4c3C2=O)NC(=O)C(C)=CC=C[C@H](C)[C@H](O)[C@@H](C)[C@@H](O)[C@@H](C)[C@H](OC(C)=O)[C@@H]1C` the figure was 21.1 µM.
Regarding `Oc1c(C(Nc2ccccn2)c2cccnc2)cc(Cl)c2cccnc12` (configuration not stated), the half-maximal inhibitory concentration (IC50) was 36.5 µM.
For the compound `CCCCNC1=CC(=O)C(=O)c2ccccc21`, the IC50 is 13.8 µM.
The same measure for `Cc1ccccc1C(=O)Nc1cccc(C(=O)N/N=C/c2cc(Cl)cc([N+](=O)[O-])c2O)c1`: 47.6 µM; for `O=C(CC1NCCc2ccccc21)Nc1ccc(Oc2ccccc2)cc1` (configuration not stated): 47.3 µM; for `CC1(C)CC(=O)c2c(nc3ccccc3c2N)C1`: 71.6 µM.
With `CN1CCN(c2c(F)cc3c(=O)c(C(=O)O)cn4c3c2OCN4C)CC1`, the half-maximal inhibitory concentration (IC50) was less than 0.23 µM.
Regarding `Cc1nc(N)c(Cc2ccc(Cl)cc2Cl)c(N)n1`, the IC50 was 44.2 µM.
On to `CN1CCCN(C(c2ccccc2)c2ccc(Cl)cc2)CC1` (configuration not stated), for which the IC50 is 86.8 µM.
The same measure for `CN(C)CCCN1c2ccccc2Sc2ccccc21`: 114 µM; for `Oc1ccccc1-c1cc(C(F)(F)C(F)F)[nH]n1`: 80.3 µM.
Take `CC[C@H]1OC(=O)C[C@@H](O)[C@H](C)[C@@H](O[C@@H]2O[C@H](C)C[C@H](N(C)C)[C@H]2O)[C@@H](CC=O)C[C@@H](C)C(=O)C=C[C@]2(C)O[C@H]2[C@@H]1C`: the IC50 is 7.16 µM.
With `O=C(CC(=O)c1c(F)cccc1Cl)c1ccccc1O`, the IC50 is 50.8 µM.
The same measure for `O=CN/N=C/c1c(O)ccc2ccccc12`: 35.4 µM; for `Cc1nonc1C(=O)N/N=C/c1ccc([N+](=O)[O-])o1`: 37.5 µM.
The same measure for `Cc1cc(N2CCC(C)CC2)nc2cccc(O)c12`: 77.1 µM; for `CCOc1ccc(Nc2nc(N)c3ccccc3n2)cc1`: 19.7 µM; for `c1ccc2c(c1)CSc1sccc1C2=C1CCNCC1`: 49.7 µM.
Consider `OCCNc1nc(Nc2ccccc2)nc2ccccc12`, for which the IC50 was 10.2 µM.
With `CCCN(CCC)CCNC(=O)C1CCN(Cc2nc(-c3ccc(Cl)cc3)oc2C)CC1` the figure was 148 µM; with `NC1=NC[C@H](CC2CCCCC2)N1CCc1cc(C(F)(F)F)cc(C(F)(F)F)c1`, 35.6 µM.
As for `O=C1NCCN1c1ncc([N+](=O)[O-])s1`, the IC50 was 40.8 µM.
As to `COc1ccc(NC2=NC3(CCCCC3)N=C(N)N2)cc1`, the IC50 was 74 µM.
With `O=C(C[n+]1cc(-c2ccc(Cl)cc2)n2c1CCC2)Nc1nc(-c2ccccc2)cs1` the figure was 22 µM; with `CCc1ccc(NC(=O)C[n+]2cc(-c3ccc(C)cc3)n3c2CCC3)cc1`, 39.8 µM.
In the case of `CC(C)(C)CC(C)(C)c1ccc(OCCOCC[N+](C)(C)Cc2ccccc2)cc1`, the IC50 was 20.4 µM.
The same measure for `O/N=C/c1ccc(OCc2ccccc2)c(Cl)c1`: 80.6 µM; for `NC(=NCCCCCCN=C(N)/N=C(\N)Nc1ccc(Cl)cc1)/N=C(\N)Nc1ccc(Cl)cc1`: 5.4 µM and 7.69 µM and 5.26 µM; for `C#CCOCCOCCOCCNc1nc(N2CCN(C(=O)CCCCCCCCCCNC(=O)Cn3cc(CCCCCN)nn3)CC2)nc(N2CCN(C(=O)CCCCCCCCCCNC(=O)[C@@H]([C@H](C)O)n3cc(C)nn3)CC2)n1`: 114 µM.
The same measure for `O=C(Nc1ccc(Cl)cc1)N1CCCN(Cc2ccccc2F)C1`: 34.9 µM; for `Cc1cccc(Nc2nc(NCc3ccco3)c3ccccc3n2)c1`: 4.95 µM; for `CC(C)(C)c1ccc(OCCCCCCN2CCNCC2)cc1`: 69.2 µM.
On to `Cc1ccc(OCC(=O)N/N=C\c2c(C)[nH]n(-c3ccccc3)c2=O)c([N+](=O)[O-])c1`, for which the IC50 was 66.6 µM.
With `CN1CCC(=C2c3ccccc3C=Cc3ccccc32)CC1` the figure was 105 µM.
On to `CCCCCC(=O)NNC(=S)NC(C)=O`, for which the IC50 is 32.9 µM.
On to `O=C(N/N=C/c1cc(Br)ccc1O)c1ccncc1`, for which the IC50 is 34.9 µM.
With `O=S(=O)(Nc1c(S(=O)(=O)c2ccccc2)c2nc3ccccc3nc2n1C1CCCCC1)c1ccccc1` the figure was 5.01 µM.
With `CN(C)CCCN(C(=O)COc1ccccc1)c1nc2ccc(Cl)cc2s1` the figure was 77.8 µM.
The same measure for `NC(=O)SCC(=O)Nc1ccc(Cl)c(Cl)c1`: 13.7 µM.
`C=CCNc1ncnc2c1[nH]c1ccc(Cl)cc12`: the IC50 is 18.3 µM.
With `OCCCCNCc1ccc(OCc2ccc(Cl)cc2Cl)cc1` the figure was 77.3 µM.
The same measure for `CCn1cc(C(=O)O)c(=O)c2cc(F)c(N3CCN(C(=S)Nc4ccc(OC)cc4)CC3)cc21`: 5.79 µM; for `Cc1ccc(NC(=O)c2ccccc2)s1`: 75.9 µM; for `Cc1ccc2nc(N(CCCN(C)C)C(=O)c3ccc4c(c3)CCCC4)sc2c1`: 40.7 µM.
For `Clc1cc(Br)ccc1OCCCNCc1ccccc1`, the half-inhibitory concentration (IC50) is 36.5 µM.
With `O=C(Nc1ccncc1)Nc1ccc(Cl)cc1` the figure was 32.8 µM; with `CCc1ccc2c(c1)Sc1ccccc1CC2N1CCN(C)CC1` (configuration not stated), 40.7 µM; with `CC(NCc1ccccc1O)C12CC3CC(CC(C3)C1)C2` (configuration not stated), 34.2 µM.
With `C#CCOCCOCCOCCNc1nc(N2CCN(C(=O)CCCCCCCCCCNC(=O)[C@H]([C@@H](C)CC)n3cc(CCCCN=C(N)N)nn3)CC2)nc(N2CCN(C(=O)CCCCCCCCCCNC(=O)[C@H](CCCCN)n3cc(C)nn3)CC2)n1`, the IC50 was 35.7 µM.
`O=[N+]([O-])c1ccc(O)c(/C=N/Nc2ccccn2)c1`: the IC50 was 13.2 µM.
Turning to `Cc1ccc(C(=O)O)cc1N=Cc1cc(Br)cc(Br)c1O`, the IC50 was 27.4 µM.
Take `O=C(CSc1ccccn1)Nc1nonc1[N+](=O)[O-]`: the half-maximal inhibitory concentration (IC50) was 87.3 µM.
With `CN(C)c1ccc(O)c2c1CC1CC3[C@@H](N(C)C)C(=O)C(C(N)=O)=C(O)[C@]3(O)C(=O)C1=C2O` (some centres not stated) the figure was 8.82 µM; with `O=C(C[n+]1cc(Br)cc2ccccc21)c1ccc(Cl)cc1`, 76.1 µM.
Take `O=C(c1ccc([N+](=O)[O-])o1)N1CCOCC1`: the IC50 is 76.8 µM.
The same measure for `CNCCCC1Sc2ccccc2Oc2ccccc21` (configuration not stated): 98.5 µM.
The same measure for `Oc1ccc(C[C@@H]2CNCCN2CCC23CC4CC(CC(C4)C2)C3)cc1`: 71.5 µM; for `CCCCCCCCCCCCCCCC[n+]1cccc(C(=O)N(CC)CC)c1`: 41.3 µM.
With `Oc1ccccc1Nc1nc(NCc2ccco2)c2ccccc2n1` the figure was 34.8 µM; with `O=C(Nc1c2ccccc2nc2ccccc12)C(Cl)(Cl)Cl`, 63.5 µM.
`O=C(N/N=C/c1sc2ccccc2c1O)c1cccc2ccccc12`: the IC50 is 70.5 µM.
The same measure for `CC(=O)NC(c1ccc2ccccc2c1)c1ccc2cccnc2c1O` (configuration not stated): 106 µM.
In the case of `COc1ccc(Nc2cc(C)c3c(O)cccc3n2)cc1`, the IC50 was 10.7 µM.
The same measure for `CO[C@H]1/C=C/O[C@@]2(C)Oc3c(C)c(O)c4c(O)c(c(C=NN5CCN(C)CC5)c(O)c4c3C2=O)NC(=O)/C(C)=C\C=C\[C@H](C)[C@H](O)[C@@H](C)[C@@H](O)[C@@H](C)[C@H](OC(C)=O)[C@@H]1C`: 9.7 µM; for `O=C(CCC(=O)Nc1ccc(Cl)cc1Cl)N/N=C/c1ccc([N+](=O)[O-])o1`: 23.5 µM; for `CCCOc1ccc(C(=O)NNC(=S)NC(C)=O)cc1`: 35.5 µM.
With `O=C(C[n+]1cc(-c2ccc(Cl)c(Cl)c2)n2c1CCC2)N1c2ccccc2Sc2ccccc21` the figure was 26.9 µM; with `COc1ccc(/C=C/C(=O)NC(=S)NNC(=O)c2cnccn2)cc1`, 49.8 µM.
As to `CN1CCN(C(c2ccc(C(F)(F)F)cc2)c2ccc3cccnc3c2O)CC1` (configuration not stated), the IC50 was 20 µM.
As for `CCCCc1ccc(N/C(N)=N/c2nc(C)cc(C)n2)cc1`, the IC50 was 77.8 µM.
The same measure for `CCCCn1c(=N)n(CC(=O)c2ccc(Br)s2)c2ccccc21`: 51.4 µM; for `CN1C(=O)NC(c2cccc(O)c2)C(C(=O)c2cccs2)C1(O)C(F)(F)F` (configuration not stated): 40.3 µM.
For `O=C(/C=C(\O)c1ccccc1)C(=O)NNC(=O)c1ccccc1`, the IC50 was 23.8 µM.
With `CCCCCc1ccc(OCCC[n+]2ccccc2)c(CCCCC)c1` the figure was 39.5 µM; with `O=C1c2ccccc2C2=Nc3ccccc3SC(c3ccccc3F)C12` (configuration not stated), 3.8 µM.
The same measure for `Cc1ccc(S(=O)(=O)CCC(=O)c2ccc(O)cc2O)cc1`: 75.7 µM.

The values above are taken from PubChem BioAssay AID1850 (Southern Research Specialized Biocontainment Screening …, 2009).
